In patent US20020132223A1, “Methods for modulating activity of the FXR nuclear receptor” (City of Hope, priority 1999, published 2002):
pEC50: −log10 of the molar value. “Also recorded” adds a separate entry of the source. Blank lines part the entries; values can stand above or below the compound they belong to.

Assays:
[1] = molecular target: T1, FXR (Rattus norvegicus, UniProt Q62735); assay: Transient transfection assay, FXR + RXR with liver bile acid transporter; assay type: cell-based; details: for pEC50: with the liver bile acid transporter
T1 sequence (Q62735 1-469): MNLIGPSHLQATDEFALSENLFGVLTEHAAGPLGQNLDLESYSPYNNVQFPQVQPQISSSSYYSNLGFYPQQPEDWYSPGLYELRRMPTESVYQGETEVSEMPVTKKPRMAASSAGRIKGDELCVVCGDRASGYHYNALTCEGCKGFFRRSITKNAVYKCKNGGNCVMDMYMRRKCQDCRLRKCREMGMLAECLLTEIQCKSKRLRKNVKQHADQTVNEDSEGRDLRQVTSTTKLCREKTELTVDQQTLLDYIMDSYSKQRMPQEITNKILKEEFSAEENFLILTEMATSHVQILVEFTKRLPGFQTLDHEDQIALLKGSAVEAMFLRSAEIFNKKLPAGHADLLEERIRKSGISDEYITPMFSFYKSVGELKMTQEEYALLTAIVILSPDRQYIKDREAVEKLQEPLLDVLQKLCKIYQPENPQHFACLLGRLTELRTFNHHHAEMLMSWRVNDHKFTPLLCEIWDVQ
T1 sequence (P19793 1-462 partner): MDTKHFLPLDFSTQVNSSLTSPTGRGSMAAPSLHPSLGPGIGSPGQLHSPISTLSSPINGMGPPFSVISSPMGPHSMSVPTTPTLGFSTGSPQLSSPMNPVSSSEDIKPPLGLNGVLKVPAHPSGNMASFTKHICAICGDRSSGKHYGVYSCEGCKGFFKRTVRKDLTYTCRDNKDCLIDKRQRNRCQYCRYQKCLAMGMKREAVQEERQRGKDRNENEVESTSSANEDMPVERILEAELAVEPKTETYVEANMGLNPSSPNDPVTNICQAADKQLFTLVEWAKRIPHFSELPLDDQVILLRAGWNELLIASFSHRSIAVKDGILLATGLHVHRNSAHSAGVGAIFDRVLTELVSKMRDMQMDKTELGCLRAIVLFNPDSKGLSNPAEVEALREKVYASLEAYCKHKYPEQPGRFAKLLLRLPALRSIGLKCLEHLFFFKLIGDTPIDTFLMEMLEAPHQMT
Excerpt: The liver and ileum express tissue-specific bile acid transport proteins for efficient uptake of these compounds. […] CV-1 cells therefore were co-transfected with a human liver bile acid transporter (accession L21893). Use of this transporter allows hydrophilic bile acid or bile acid-derived compounds or compounds, which due to their structural similarity to bile acid are transported by the transporter, to be tested for activation of the intracellular bile acid nuclear receptor. […] Any suitable non-specific transporter may also be used.
After transfection, cells were treated with 100 μM concentrations of the indicated bile acid.
In addition to the structure-activity studies, dose-response analyses were performed for some bile acid nuclear receptor ligands. For these analyses, shown in FIG. 11, CV-1 cells were transfected as above, with the liver bile acid transporter, and treated with the indicated varying concentrations of each bile acid.

[2] = molecular target: T2, FXR-RXR heterodimers (Rattus norvegicus, UniProt Q62735); assay: Transient transfection activation assay in CV-1 cells, EcRE×6 reporter, FXR + RXR; assay type: cell-based
T2 sequence (Q62735 1-469): T1 sequence (Q62735 1-469)
T2 sequence (P19793 1-462 partner): T1 sequence (P19793 1-462 partner)
Excerpt: Suitable reporter gene constructs are well known to skilled workers in the fields of biochemistry and molecular biology. Reporter/receptor pairs used in the assay reported in FIG. 1 are listed in Table I. All transfections additionally contained CMV-βgal as an internal control. Suitable constructs for use in the these studies may conveniently be cloned into pCMV. pCMV contains the cytomegalovirus promoter/enhancer followed by a bacteriophage T7 promoter for transcription in vitro. Other vectors known in the art can be used in the methods of the present invention.
(§1) CV-1 cells for the activation assays were grown in Dulbecco's modified Eagle's medium supplemented with 10% resin charcoal-stripped fetal bovine serum, 50 U/ml penicillin G and 50 μg/ml streptomycin sulfate (DMEM-FBS) at 37° C. in 5% CO2. One day prior to transfection, cells were plated to 50-80% confluence using phenol red free DMEM-FBS.
The cells were transiently transfected by lipofection. Reporter constructs (300 ng/10^5 cells) and cytomegalovirus-driven expression vectors (20-50 ng/10^5 cells) were added, with CMV-β-gal (500 ng/10^5 cells) as an internal control. After 2 hours, the liposomes were removed and the cells were treated for approximately 45 hours with phenol red free DMEM-FBS containing the test bile acid and other compounds.
Any compound which is a candidate for activation of FXR may be tested by this method. […] After exposure to ligand, the cells were harvested and assayed for β-galactosidase activity (control) and activity of the specific reporter gene.
Activity of the reporter gene can be conveniently normalized to the internal control and the data plotted as fold activation relative to untreated cells.
(§2) A variety of commercially available bile acids (Sigma) were tested for their ability to activate known FXR-RXR (FIG. 9; left panel) and FXR-RXRm (FIG. 9, right panel).
as §1, with “cells” for “cells for the activation assays”, “Modified” for “modified”, “resin-charcoal stripped” for “resin charcoal-stripped”, “phenol-red” for “phenol red”

[3] = molecular target: T3, FXR-RXR heterodimers (Rattus norvegicus, UniProt Q62735); assay: In vitro coactivator recruitment assay (mobility shift), FXR + RXR, GST-GRIP1; assay type: biochemical
T3 sequence (Q62735 1-469): T1 sequence (Q62735 1-469)
T3 sequence (P19793 1-462 partner): T1 sequence (P19793 1-462 partner)
T3 sequence (Q61026 625-765 partner limits assumed): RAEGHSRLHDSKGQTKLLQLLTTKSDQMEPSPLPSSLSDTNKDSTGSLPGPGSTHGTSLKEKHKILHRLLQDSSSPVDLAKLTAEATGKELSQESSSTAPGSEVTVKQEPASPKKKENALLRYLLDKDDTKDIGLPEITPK
Experimental: In vitro coactivator recruitment assays were performed by adding the ligand to a mixture of the following components: FXR, 9-cis retinoic acid receptor, a coactivator, and a labeled FXR response element (probe). […] GRIP1 was expressed in bacteria and purified for these assays. The GST-GRIP1 construct, containing the three receptor interaction domains of mouse GRIP1 (Arg 625-Lys 765, accession U39060) fused to glutathione-S-transferase, was created for bacterial expression of the GRIP1 coactivator.
After addition of the putative ligand to the mixture of components describe above and mixing, the mixture is incubated under conditions.
GST-GRIP1 was expressed in E. coli and purified on glutathione-sepharose columns. […] Complexes were electrophoresed through a 5% polyacrylamide gel in 0.5×TBE (45 mM Tris base, 45 mM boric acid, 1 mM EDTA) at room temperature. Electrophoretic mobility indicated recruitment of coactivator.

[4] = molecular target: T4, FXR + RXRm (Rattus norvegicus, UniProt Q62735); assay: In vitro coactivator recruitment assay (mobility shift), FXR + RXRm, GST-GRIP1; assay type: biochemical
T4 sequence (Q62735 1-469): T1 sequence (Q62735 1-469)
T4 sequence (Q61026 625-765 partner): T3 sequence (Q61026 625-765 partner limits assumed)

[5] = tested on: FXR derived from human, rat and mouse; assay: Antagonism of CDCA activation of FXR in CV-1 cells; assay type: cell-based; details: 50 μM CDCA, 20 μM azole compound
Experimental: The FXR receptor activation assays disclosed herein may be used not only to test compounds for activation of FXR as above, but also for compounds which antagonize FXR activation. […] See Example 7.
CV-1 cells were grown in DMEM supplemented with 10% resin-charcoal stripped fetal bovine serum, 50 U/ml penicillin G and 50 μg/ml streptomycin sulfate at 37° C. in 5% CO2. Cells were plated to 50-80% confluence one day prior to transfection using phenol red-free DMEM-FBS. The cells were transfected by lipofection using N-[1-(2,3-dioleoyloxy)propyl]-N,N,N-ammonium methyl sulfate according to manufacture's instructions (Boehringer Mannheim). The cells were transfected with a CMV expression vector containing the FXR indicated in FIG. 16 (none, −; human, hFXR; rat, rFXR; or mouse, mFXR) and RXR. The luciferase reporter construct contained the herpesvirus thymidine kinase promoter (−105/+51) linked to six copies of the response element hsp27 EcRE. […] After exposure to the agonist and candidate antagonist compounds, cells were harvested and assayed for luciferase and β-galactosidase activity. […] Therefore, clotrimazole, Compound A and Compound B were selected from the screen as FXR receptor antagonists.

[6] = molecular target: T5, FXR-RXRm (Rattus norvegicus, UniProt Q62735); assay: Transient transfection activation assay in CV-1 cells, FXR + RXRm; assay type: cell-based; details: 100 nM
T5 sequence (Q62735 1-469): T1 sequence (Q62735 1-469)
Experimental: as §2
as §1, with “cells” for “cells for the activation assays”, “Modified” for “modified”, “resin-charcoal stripped” for “resin charcoal-stripped”, “phenol-red” for “phenol red”

[7] = molecular target: T6, RXR (GAL-L-RXR) (Homo sapiens, UniProt P19793); assay: GAL4 chimera activation assay in CV-1 cells, UASG×4 reporter, GAL-L-RXR
T6 sequence (P19793 203-462): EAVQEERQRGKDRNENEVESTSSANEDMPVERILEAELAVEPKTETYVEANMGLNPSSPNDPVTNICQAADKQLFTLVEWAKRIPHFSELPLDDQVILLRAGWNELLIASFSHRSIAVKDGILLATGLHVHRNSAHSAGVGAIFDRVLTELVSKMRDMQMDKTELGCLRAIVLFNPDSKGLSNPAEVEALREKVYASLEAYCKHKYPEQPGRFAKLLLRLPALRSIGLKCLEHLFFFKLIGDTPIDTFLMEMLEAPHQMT
Excerpt: CV-1 cells were transiently transfected with a UASG×4 reporter and expression vectors for β-galactosidase and either GAL-L-RXR or the GAL-L-RXRm LBD mutant.
Confirmation of the analytical procedure was achieved by testing FXR-RXR and FXR-RXRm dimers for activation by RXR and FXR ligands. […] This type of assay therefore can specifically discriminate between activation by RXR ligands and FXR ligands.

[8] = tested on: RXRα; PPARα, γ and δ; VDR; T3Rβ; RAR; PXR; LXRα and CARβ; assay: Activation of other receptors by CDCA (data not shown)
[9] = bile acids 100 μM, no bile acid transporter

- activation of FXR ([1]; 100 μM, coexpression of the liver bile acid transporter): 170 fold
- activity as FXR activator [2, 9]: inactive
- coactivator recruitment by FXR-RXR [3]: less effective
SMILES: C[C@H](CCC(=O)O)[C@H]1CC[C@H]2[C@@H]3[C@H](O)C[C@@H]4C[C@H](O)CC[C@]4(C)[C@H]3C[C@H](O)[C@]12C [CA, cholic acid]

SMILES: C[C@H](CCC(=O)O)[C@H]1CC[C@H]2[C@@H]3C(=O)C[C@@H]4C[C@H](O)CC[C@]4(C)[C@H]3CC[C@]12C [7-ketolithocholic acid, 5β-cholanic acid-3α-ol-7-one]
- activity as FXR activator [2, 9]: activity intermediate between CDCA and UDCA

- coactivator recruitment by FXR-RXRm [4]: recruited coactivator
SMILES: C[C@H](CCC(=O)NCC(=O)O)[C@H]1CC[C@H]2[C@@H]3CC[C@@H]4C[C@H](O)CC[C@]4(C)[C@H]3CC[C@]12C [glyco-LCA]

- pEC50 [1]: ~4.30
SMILES: C[C@H](CCC(=O)O)[C@H]1CC[C@H]2[C@@H]3CC[C@@H]4C[C@H](O)CC[C@]4(C)[C@H]3C[C@H](O)[C@]12C [DCA, deoxycholic acid]

- activity as FXR activator [2, 9]: inactive
SMILES: C[C@H](CCC(=O)O)[C@H]1CC[C@H]2[C@@H]3C[C@@H](O)[C@@H]4C[C@H](O)CC[C@]4(C)[C@H]3CC[C@]12C [murocholic acid]

SMILES: c1ccc(-c2cn(C(c3ccccc3)(c3ccccc3)c3ccccc3)cn2)cc1 [Compound B]
- antagonism of CDCA activation of FXR [5]: displayed antagonist properties; also recorded: demonstrate inhibition of FXR activation

- activity as FXR activator [2, 9]: inactive
SMILES: C[C@H](CCC(=O)O)[C@H]1CC[C@H]2[C@@H]3[C@H](O)[C@H](O)[C@@H]4C[C@H](O)CC[C@]4(C)[C@H]3CC[C@]12C [hyocholic]

- activity as FXR activator [2, 9]: inactive
SMILES: C[C@H](CCC(=O)O)[C@H]1CC[C@H]2[C@@H]3[C@H](O)[C@@H](O)[C@@H]4C[C@H](O)CC[C@]4(C)[C@H]3CC[C@]12C [α-muricholic acid]

SMILES: CC(=O)N1CCN(c2ccc(OCC3COC(Cn4ccnc4)(c4ccc(Cl)cc4Cl)O3)cc2)CC1 (stereo not shown) [ketonazole]
- antagonism of CDCA activation of FXR [5]: inactive

SMILES: Cc1cc2c(cc1C1(c3ccc(C(=O)O)cn3)CC1)C(C)(C)CCC2(C)C [LG268]
- response of FXR-RXRm [6]: little or no response

SMILES: Clc1ccccc1C(c1ccccc1)(c1ccccc1)n1ccnc1 [clotrimazole]
- antagonism of CDCA activation of FXR [5]: strongest effect; also recorded: strongly active

SMILES: COC(=O)/C=C(\C)CC/C=C(\C)CC[C@H]1OC1(C)C [JH III, juvenile hormone III]
- activity as FXR activator ([2]; 50 μM): far weaker activity relative to the most efficacious bile acids

- pEC50 [1]: ~4.30
SMILES: C[C@H](CCC(=O)O)[C@H]1CC[C@H]2[C@@H]3CC[C@@H]4C[C@H](O)CC[C@]4(C)[C@H]3CC[C@]12C [LCA, lithocholic acid]

SMILES: C[C@H](CCC(=O)O)[C@H]1CC[C@H]2[C@@H]3[C@H](O)C[C@@H]4C[C@H](O)CC[C@]4(C)[C@H]3CC[C@]12C (single isomer, unassigned) [peak Z, chenodeoxycholic acid]
- effect on RXR ([7]; HPLC fractions, 25 μg/ml): no effect

SMILES: C[C@H](CCC(=O)O)[C@H]1CC[C@H]2[C@@H]3[C@H](O)C[C@@H]4C[C@H](O)CC[C@]4(C)[C@H]3CC[C@]12C [CDCA, chenodeoxycholic acid]
- activation of other receptors [8]: failed to activate
- activation of GAL-L-RXR chimera [7]: did not activate

SMILES: FC(F)(F)c1cccc(C(c2ccccc2)(c2ccccc2)n2ccnc2)c1 [Compound A]
- antagonism of CDCA activation of FXR [5]: displayed antagonist properties; also recorded: significant but weak activity
